Data from patent publication US20140194477A1, “KINASE PROTEIN BINDING INHIBITORS” (Roswell Park Cancer Institute, priority 2011, published 2014).

Legend:
[1] = 7-day single-dose MTD toxicologic study of Y15, oral gavage, CD-1 mice; type: in vivo; details: both sexes, CD-1, mouse, in vivo, po
Protocol: (§1) • A 7-day, single-dose maximum tolerated dose toxicologic study of the chemical 1,2,4,5-Benzenetetramine tetrahydrochloride (Y-15) was performed in CD-1 mice.
(§2) • The chemical 1,2,4,5-Benzenetetramine tetrahydrochloride (Y-15) was the test article. Y-15 is a chemical grade compound available through Sigma-Aldrich. The test article was prepared in phosphate buffered saline (PBS). The test article was prepared by the sponsor and delivered to the study director prior to the study. The test article was stored in the freezer (0° C.), protected from light.
(§3) • The CD-1 [Hsd:ICR(CD-1)] albino mouse was used. The CD-1 mouse is conventionally used in toxicity tests to provide information on which human hazards can be judged, and is one of the choices of species preferred by regulatory agencies. Mice were obtained from Harlan (Frederick, Md.). • Mice were acclimated for a minimum of 2 days prior to testing. […] mice, nulliparous and non-pregnant, were used. Normal weight gain, appearance and behavior were factors used to select healthy mice for testing. Only naive animals were used. Mice were 4-7 weeks old, weighed 22-34 grams (males) and 19-24 grams (females), and were in good health at the start of the study. Mice were 5-8 weeks old, weighed 23-36 grams (males) and 20-25 grams (females) at the conclusion of the study. • Mice were randomly assigned to 8 experimental groups consisting of 3 males and 3 females which received increasing doses of the chemical Y-15. Mice were identified via cage cards, tail markings, and ear punch. Mouse identification codes contained information regarding experimental group (A=15 mg/kg dose group, B=30 mg/kg dose group, C=60 mg/kg dose group, D=90 mg/kg dose group, E=120 mg/kg dose group, F=150 mg/kg dose group, G=200 mg/kg dose group, and H=250 mg/kg dose group), sex (M=male, F=female), and animal number (1-3). Mice were fed autoclaved Harlan-Teklad sterilizable 7012 mouse/rat diet ad libitum. The feed is routinely analyzed by the manufacturer for nutritional components and environmental contaminants. Tap water acidified to a pH of 2.5-3.5 was provided in autoclaved water bottles ad libitum. Municipal water supply is analyzed by the Bureau Veritas Consumer Product Services of Buffalo, NY on an annual basis. […]
(§4) • The test article 1,2,4,5-Benzenetetramine tetrahydrochloride (Y15) was prepared in PBS and administered orally (PO) via orogastric gavage as a single dose on day 0 in the morning. […] Dosages were calculated on a “per mouse” basis, not on a mg/kg basis. […]

[2] = tested on: CD-1 mice; assay: as above; type: in vivo
Protocol: as §1, §2, §3, §4

## Cl.Cl.Cl.Cl.Nc1cc(N)c(N)cc1N [Y15, 1,2,4,5-benzenetetraamine tetrahydrochloride]
[1]
  MTD at 7 days: 200 mg/kg
[2]; delivery once /week, duration 7 days
  maximal tolerated dose (summary statement): 250 mg/kg
[2]; single oral gavage dose, 15-200 mg/kg groups
  toxicity findings, other dose groups: no mortality, adverse clinical signs, or decrement in body weight greater than 10%
[2]; single oral gavage dose, group H 250 mg/kg
  mortality, highest dose group: mortality was seen
